Assay results: patent publication US20080207617A1, “Quinoline Derivatives and Quinazoline Derivatives Inhibiting Autophosphrylation of Flt3 and Medicinal Compositions Containing the Same” (KIRIN BEER KABUSHIKI KAISHA, priority 2002, published 2008)
pIC50: −log10 of the molar value. Where a name gives a salt, the structure may show the parent alone.

Assays:
MV4-11 = assay: Cell growth inhibitory test MV4-11 (WST-1); type: cell-based, human; details: Homo sapiens, MV4-11, 72 h, MV4-11 cells, 3 days culture
Procedure: Pharmacological Test Example 2
Cell Growth Inhibitory Test
MV4-11 (ATCC number: CRL-9591) as human leukemia cells was seeded in an amount of 3×10^3 using a DMEM medium containing 10% fetal calf serum (purchased from GIBCO) in a 96-well flat bottom plate.
(§1) A solution of a test compound in dimethyl sulfoxide was added to each well and was cultured in a 5% carbon dioxide incubator for 3 days. Three days after the initiation of the culture, 10 μl of a WST-1 solution in Cell Counting Kit (purchased from Wako Pure Chemical Industries, Ltd.) was added to each well for a color reaction. After proper color development, the absorbance was measured with a microplate reader under conditions of measurement wavelength 450 nm and reference wavelength 650 nm. The growth ratio for each well was determined by presuming the absorbance without the addition of the medicament to be 100% growth ratio and the absorbance of the well without seeding of the cells to be 0% growth ratio. The concentration of the test compound was varied on several levels, the cell growth ratio for each case was determined, and the concentration of the test compound necessary for inhibiting 50% of cell growth ratio (IC50) was calculated.

MOLM13 = assay: Cell growth inhibitory activities on cultured human leukemia cells MOLM-13 (WST-1); type: cell-based; details: Homo sapiens, MOLM-13, 72 h, 3 days culture
Procedure: Pharmacological Test Example 4
Cell Growth Inhibitory Activities on Cultured Human Leukemia Cells
as §1, with “Human leukemia cells MOLM13 (subdivided from Hayashibara Biochemical Laboratories, Inc.) were seeded in an amount of 3×10^3 using a DMEM medium containing 10% fetal calf serum (purchased from GIBCO) in a 96-well flat bottom plate. A solution” for “A solution”

| Structure (SMILES) | pIC50 (MV4-11) | IC50 (MOLM13) [nM] |
| --- | --- | --- |
| COc1cc2nccc(Oc3ccc(NC(=O)NCCC(C)(C)C)c(F)c3)c2cc1OC [Compound 9, 1-[4-(6,7-Dimethoxy-quinolin-4-yloxy)-2-fluoro-phenyl]-3-(3,3-dimethyl-butyl)-urea hydrochloride] | 8.10 | 24 |
| COc1cc2nccc(Oc3ccc(NC(=O)NCCC4CCCCC4)cc3)c2cc1OC [Compound 31, 1-(2-Cyclohexyl-ethyl)-3-[4-(6,7-dimethoxy-quinolin-4-yloxy)-phenyl]-urea] | 8.70 | 2 |
| CCCCCNC(=O)Nc1ccc(Oc2ccnc3cc(OC)c(OC)cc23)cc1 [Compound 23, 1-[4-(6,7-Dimethoxy-quinolin-4-yloxy)-phenyl]-3-pentyl-urea] | 8.70 | 4 |
| COc1cc2nccc(Oc3ccc(NC(=O)NCC4CCCCC4)cc3)c2cc1OC [Compound 30, 1-Cyclohexylmethyl-3-[4-(6,7-dimethoxy-quinolin-4-yloxy)-phenyl]-urea] | 8.40 | 8 |
| COc1cc2c(Oc3ccc(NC(=O)NCCC(C)(C)C)c(Cl)c3)ccnc2cc1OCCCN1CCC(C)CC1 [Compound 52, 1-(2-Chloro-4-{6-methoxy-7-[3-(4-methyl-piperidin-1-yl)-propoxy]-quinolin-4-yloxy}-phenyl)-3-(3,3-dimethyl-butyl)-urea] | 6.74 | 188 |
| COc1cc2c(Oc3ccc(NC(=O)NCCC(C)(C)C)c(Cl)c3)ccnc2cc1OCCC1CCCCN1 (stereo not shown) [Compound 50, 1-{2-Chloro-4-[6-methoxy-7-(2-piperidin-2-yl-ethoxy)-quinolin-4-yloxy]-phenyl}-3-(3,3-dimethyl-butyl)-urea] | 6.65 | 243 |
| COc1cc2c(Oc3ccc(NC(=O)NCCC(C)(C)C)c(Cl)c3)ccnc2cc1OCCN1CCCCC1 [Compound 42, 1-{2-Chloro-4-[6-methoxy-7-(2-piperidin-1-yl-ethoxy)-quinolin-4-yloxy]-phenyl}-3-(3,3-dimethyl-butyl)-urea] | 6.63 | 273 |
| COc1cc2nccc(Oc3ccc(NC(=O)NCCCC(C)(C)C)cc3)c2cc1OC [Compound 35, 1-[4-(6,7-Dimethoxy-quinolin-4-yloxy)-phenyl]-3-(4,4-dimethyl-pentyl)-urea] | > 9.00 | 3 |
| CCNC(=O)Nc1ccc(Oc2ccnc3cc(OC)c(OC)cc23)cc1 [Compound 28, 1-[4-(6,7-Dimethoxy-quinolin-4-yloxy)-phenyl]-3-ethyl-urea] | 7.72 | 26 |
| COc1cc2c(Oc3ccc(NC(=O)NCCC4CCCCCC4)c(F)c3)ccnc2cc1OCCN1CC(C)OC(C)C1 (stereo not shown) [Compound 71, 1-(2-Cycloheptyl-ethyl)-3-(4-{7-[2-(2,6-dimethyl-morpholin-4-yl)-ethoxy]-6-methoxy-quinolin-4-yloxy}-2-fluoro-phenyl)-urea] | 7.82 | 27 |
| COc1cc2nccc(Oc3ccc(NC(=O)NCCC(C)(C)C)c(C)c3)c2cc1OC [Compound 2, 1-[4-(6,7-Dimethoxy-quinolin-4-yloxy)-2-methyl-phenyl]-3-(3,3-dimethyl-butyl)-urea] | 6.40 | 770 |
| COc1cc2c(Oc3ccc(NC(=O)NCCC(C)(C)C)c(Cl)c3)ccnc2cc1OCCN1CCCC1 [Compound 48, 1-{2-Chloro-4-[6-methoxy-7-(2-pyrrolidin-1-yl-ethoxy)-quinolin-4-yloxy]-phenyl}-3-(3,3-dimethyl-butyl)-urea] | 6.66 | – |
| COc1cc2nccc(Oc3ccc(NC(=O)NCCC(C)(C)CO)cc3)c2cc1OC [Compound 39, 1-[4-(6,7-Dimethoxy-quinolin-4-yloxy)-phenyl]-3-(4-hydroxy-3,3-dimethyl-butyl)-urea] | > 9.00 | 3 |
| COc1cc2c(Oc3ccc(NC(=O)NCCC(C)(C)C)c(Cl)c3)ccnc2cc1OCCN1CCCCCC1 [Compound 74, 1-{4-[7-(2-Azepan-1-yl-ethoxy)-6-methoxy-quinolin-4-yloxy]-2-chloro-phenyl}-3-(3,3-dimethyl-butyl)-urea] | 6.59 | 244 |
| COc1cc2nccc(Oc3ccc(NC(=O)NC(C)C)cc3)c2cc1OC [Compound 20, 1-[4-(6,7-Dimethoxy-quinolin-4-yloxy)-phenyl]-3-isopropyl-urea] | 7.51 | 39 |
| CCCCCCNC(=O)Nc1ccc(Oc2ccnc3cc(OC)c(OC)cc23)cc1 [Compound 22, 1-[4-(6,7-Dimethoxy-quinolin-4-yloxy)-phenyl]-3-hexyl-urea] | 8.40 | 7 |

| Structure (SMILES) | pIC50 (MV4-11) | IC50 (MOLM13) [nM] |
| --- | --- | --- |
| COc1cc2c(Oc3ccc(NC(=O)NCCC(C)(C)C)c(Cl)c3)ccnc2cc1OCCC1CCNCC1 [Compound 49, 1-{2-Chloro-4-[6-methoxy-7-(2-piperidin-4-yl-ethoxy)-quinolin-4-yloxy]-phenyl}-3-(3,3-dimethyl-butyl)-urea] | 6.68 | 224 |
| COc1cc2nccc(Oc3ccc(NC(=O)NCC(C)(C)C)cc3)c2cc1OC [Compound 32, 1-[4-(6,7-Dimethoxy-quinolin-4-yloxy)-phenyl]-3-(2,2-dimethyl-propyl)-urea] | 6.70 | 314 |
| COc1cc2nccc(Oc3ccc(NC(=O)NCCC(C)C)cc3)c2cc1OC [Compound 29, 1-[4-(6,7-Dimethoxy-quinolin-4-yloxy)-phenyl]-3-(3-methyl-butyl)-urea] | 9.00 | 3 |
| COc1cc2nccc(Oc3ccc(NC(=O)NCCC(C)(C)C)c(C)c3C)c2cc1OC [Compound 7, 1-[4-(6,7-Dimethoxy-quinolin-4-yloxy)-2,3-dimethyl-phenyl]-3-(3,3-dimethyl-butyl)-urea] | 6.25 | 593 |
| COc1cc2c(Oc3ccc(NC(=O)NCCC(C)(C)C)c(Cl)c3)ccnc2cc1OCCN1CCC(C)CC1 [Compound 51, 1-(2-Chloro-4-{6-methoxy-7-[2-(4-methyl-piperidin-1-yl)-ethoxy]-quinolin-4-yloxy}-phenyl)-3-(3,3-dimethyl-butyl)-urea] | 6.68 | 216 |
| COc1cc2nccc(Oc3ccc(NC(=O)NCCC(C)(C)C)c([N+](=O)[O-])c3)c2cc1OC [Compound 37, 1-[2-Nitro-4-(6,7-dimethoxy-quinolin-4-yloxy)-phenyl]-3-(3,3-dimethyl-butyl)-urea] | 7.33 | 38 |
| CCCNC(=O)Nc1ccc(Oc2ccnc3cc(OC)c(OC)cc23)cc1 [Compound 21, 1-[4-(6,7-Dimethoxy-quinolin-4-yloxy)-phenyl]-3-propyl-urea] | 7.51 | 22 |
| COc1cc2c(Oc3ccc(NC(=O)NCCC4CCCC4)cc3F)ccnc2cc1OCCN1CCCCC1 [Compound 59, 1-(2-Cyclopentyl-ethyl)-3-{3-fluoro-4-[6-methoxy-7-(2-piperidin-1-yl-ethoxy)-quinolin-4-yloxy]-phenyl}-urea] | 8.70 | 4 |
| CNC(=O)Nc1ccc(Oc2ccnc3cc(OC)c(OC)cc23)cc1 [Compound 27, 1-[4-(6,7-Dimethoxy-quinolin-4-yloxy)-phenyl]-3-methyl-urea] | 7.49 | 45 |
| COc1cc2ncnc(Oc3ccc(NC(=O)NCCC(C)(C)C)cc3)c2cc1OC [Compound 36, 1-[4-(6,7-Dimethoxy-quinazolin-4-yloxy)-phenyl]-3-(3,3-dimethyl-butyl)-urea] | > 9.00 | 2 |
| COc1cc2nccc(Oc3ccc(NC(=O)NCCCC(C)C)cc3)c2cc1OC [Compound 34, 1-[4-(6,7-Dimethoxy-quinolin-4-yloxy)-phenyl]-3-(4-methyl-pentyl)-urea] | > 9.00 | 2 |
| CCCCNC(=O)Nc1ccc(Oc2ccnc3cc(OC)c(OC)cc23)cc1 [Compound 19, 1-Butyl 3-[4-(6,7-dimethoxy-quinolin-4-yloxy)-phenyl]-urea] | 8.22 | 10 |
| COc1cc2c(Oc3ccc(NC(=O)NCCC(C)(C)C)cc3)ccnc2cc1OCCN1CCOCC1 [Compound 66, 1-(3,3-Dimethyl-butyl)-3-{4-[6-methoxy-7-(2-morpholin-4-yl-ethoxy)-quinolin-4-yloxy]-phenyl}-urea] | > 9.00 | < 1 |
| COCCCNC(=O)Nc1ccc(Oc2ccnc3cc(OC)c(OC)cc23)cc1 [Compound 24, 1-[4-(6,7-Dimethoxy-quinolin-4-yloxy)-phenyl]-3-(3-methoxy-propyl)-urea] | 7.74 | 24 |
| COc1cc(Oc2ccnc3cc(OC)c(OC)cc23)ccc1NC(=O)NCCC(C)(C)C [Compound 4, 1-[4-(6,7-Dimethoxy-quinolin-4-yloxy)-2-methoxy-phenyl]-3-(3,3-dimethyl-butyl)-urea] | 6.05 | 653 |
